≈ marks a conversion by molar mass, not a printed value. Blank lines part the entries; values can stand above or below the compound they belong to.
Key:
Experiment in all cases: In vitro antibacterial evaluation: minimum inhibitory concentration (MIC), broth dilution method
Format in all cases: cell-based
Streptococcus sp. = settings: 18 hours at 35° C.
Procedure, shortened: (§1)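 First, organisms are seeded at 5×10^5 CFU/mL into Muller-Hinton II […]. Next, antibiotic is applied across 64-0.06 μg/mL by broth dilution (NCCLS M7-A2). Finally, the lowest inhibitory concentration is recorded as MIC.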

Escherichia coli = Escherichia coli (GC 4560); 18 hours at 35° C.
Procedure, shortened: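 NCCLS M7-A2 broth dilution; Muller-Hinton II […]; 5×10^5 CFU/mL; 64-0.06 μg/mL. MIC = lowest concentration with no growth.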

Staphylococcus sp. = settings: for MIC Staphylococcus haemolyticus (GC 4546): strain GC 4546; for MIC Coagulase Negative Staphylococcus (GC 4547): strain GC 4547; for MIC Coagulase Negative Staphylococcus (GC 4548): strain GC 4548; for MIC Coagulase Negative Staphylococcus (GC 4549): strain GC 4549; for MIC Coagulase Negative Staphylococcus (GC 4551): strain GC 4551
Procedure, shortened: as §1

Enterococcus sp. = settings: 18 hours at 35° C.
Procedure, shortened: as §1

[1] = Streptococcus agalactiae (GC 4564)
[2] = Streptococcus pneumoniae (ATCC 6301)
[3] = Streptococcus pneumoniae (GC 1894)
[4] = Streptococcus pneumoniae (GC 4565)
[5] = Streptococcus pyogenes (GC 4563)
[6] = broth dilution, inoculum 5×10^5 CFU/mL
[7] = Enterococcus faecalis (ATCC 29212)
[8] = Enterococcus faecalis (GC 2242)
[9] = Enterococcus faecalis (GC 2691)
[10] = Enterococcus faecalis (GC 4552)
[11] = Enterococcus faecalis (GC 4553)
[12] = Enterococcus faecalis (GC 6189)

MIC Streptococcus agalactiae (GC 4564) (Streptococcus sp.; [1]): 4 µg/mL (≈ 2.52 µM)
MIC Streptococcus pneumoniae (ATCC 6301) (Streptococcus sp.; [2]): 4 µg/mL (≈ 2.52 µM)
MIC Streptococcus pneumoniae (GC 1894) (Streptococcus sp.; [3]): 0.5 µg/mL (≈ 0.315 µM)
MIC Streptococcus pneumoniae (GC 4565) (Streptococcus sp.; [4]): 4 µg/mL (≈ 2.52 µM)
MIC Streptococcus pyogenes (GC 4563) (Streptococcus sp.; [5]): 2 µg/mL (≈ 1.26 µM)
MIC Streptococcus agalactiae (GC 4564) (Streptococcus sp.; [6]): 4 µg/mL (≈ 2.52 µM)
MIC Streptococcus pneumoniae (ATCC 6301) (Streptococcus sp.; [6]): 4 µg/mL (≈ 2.52 µM)
MIC Streptococcus pneumoniae (GC 1894) (Streptococcus sp.; [6]): 0.5 µg/mL (≈ 0.315 µM)
MIC Streptococcus pneumoniae (GC 4565) (Streptococcus sp.; [6]): 4 µg/mL (≈ 2.52 µM)
MIC Streptococcus pyogenes (GC 4563) (Streptococcus sp.; [6]): 2 µg/mL (≈ 1.26 µM)
MIC Escherichia coli (GC 4560) (Escherichia coli): 4 µg/mL (≈ 2.52 µM)
MIC Staphylococcus aureus (ATCC 29213) (Staphylococcus sp.; strain ATCC 29213): 16 µg/mL (≈ 10.1 µM)
MIC Staphylococcus aureus (GC 1131) (Staphylococcus sp.; strain GC 1131): 16 µg/mL (≈ 10.1 µM)
MIC Staphylococcus aureus (GC 3051) (Staphylococcus sp.; strain GC 3051): 16 µg/mL (≈ 10.1 µM)
MIC Staphylococcus aureus (GC 3053) (Staphylococcus sp.; strain GC 3053): 16 µg/mL (≈ 10.1 µM)
MIC Staphylococcus aureus (GC 4541) (Staphylococcus sp.; strain GC 4541): 8 µg/mL (≈ 5.05 µM)
MIC Staphylococcus aureus (GC 4542) (Staphylococcus sp.; strain GC 4542): 16 µg/mL (≈ 10.1 µM)
MIC Staphylococcus aureus-SMITH (GC 4543) (Staphylococcus sp.; strain GC 4543): 8 µg/mL (≈ 5.05 µM)
MIC Staphylococcus aureus (GC 4544) (Staphylococcus sp.; strain GC 4544): 16 µg/mL (≈ 10.1 µM)
MIC Staphylococcus aureus (GC 4545) (Staphylococcus sp.; strain GC 4545): 16 µg/mL (≈ 10.1 µM)
MIC Coagulase Negative Staphylococcus (GC 4547) (Staphylococcus sp.): 8 µg/mL (≈ 5.05 µM)
MIC Coagulase Negative Staphylococcus (GC 4548) (Staphylococcus sp.): 8 µg/mL (≈ 5.05 µM)
MIC Coagulase Negative Staphylococcus (GC 4549) (Staphylococcus sp.): 16 µg/mL (≈ 10.1 µM)
MIC Coagulase Negative Staphylococcus (GC 4551) (Staphylococcus sp.): 8 µg/mL (≈ 5.05 µM)
MIC Coagulase Negative Staphylococcus (GC 6257) (Staphylococcus sp.; strain GC 6257): 2 µg/mL (≈ 1.26 µM)
MIC Enterococcus avium (GC 4558) (Enterococcus sp.; Enterococcus avium (GC 4558)): 8 µg/mL (≈ 5.05 µM)
MIC Enterococcus faecalis (ATCC 29212) (Enterococcus sp.; [7]): 32 µg/mL (≈ 20.2 µM)
MIC Enterococcus faecalis (GC 2242) (Enterococcus sp.; [8]): 16 µg/mL (≈ 10.1 µM)
MIC Enterococcus faecalis (GC 2691) (Enterococcus sp.; [9]): 32 µg/mL (≈ 20.2 µM)
MIC Enterococcus faecalis (GC 3059) (Enterococcus sp.; Enterococcus faecalis (GC 3059)): 32 µg/mL (≈ 20.2 µM)
MIC Enterococcus faecalis (GC 4552) (Enterococcus sp.; [10]): 32 µg/mL (≈ 20.2 µM)
MIC Enterococcus faecalis (GC 4553) (Enterococcus sp.; [11]): 16 µg/mL (≈ 10.1 µM)
MIC Enterococcus faecalis (GC 4554) (Enterococcus sp.; Enterococcus faecalis (GC 4554)): 32 µg/mL (≈ 20.2 µM)
MIC Enterococcus faecalis (GC 6189) (Enterococcus sp.; [12]): 32 µg/mL (≈ 20.2 µM)
MIC Enterococcus faecium (GC 2243) (Enterococcus sp.; Enterococcus faecium (GC 2243)): 16 µg/mL (≈ 10.1 µM)
MIC Enterococcus faecium (GC 4556) (Enterococcus sp.; Enterococcus faecium (GC 4556)): 32 µg/mL (≈ 20.2 µM)
MIC Enterococcus faecium (GC 4557) (Enterococcus sp.; Enterococcus faecium (GC 4557)): 2 µg/mL (≈ 1.26 µM)
MIC Enterococcus avium (GC 4558) (Enterococcus sp.; [6]): 8 µg/mL (≈ 5.05 µM)
MIC Enterococcus faecalis (ATCC 29212) (Enterococcus sp.; [6]): 32 µg/mL (≈ 20.2 µM)
MIC Enterococcus faecalis (GC 2242) (Enterococcus sp.; [6]): 16 µg/mL (≈ 10.1 µM)
MIC Enterococcus faecalis (GC 2691) (Enterococcus sp.; [6]): 32 µg/mL (≈ 20.2 µM)
MIC Enterococcus faecalis (GC 3059) (Enterococcus sp.; [6]): 32 µg/mL (≈ 20.2 µM)
MIC Enterococcus faecalis (GC 4552) (Enterococcus sp.; [6]): 32 µg/mL (≈ 20.2 µM)
MIC Enterococcus faecalis (GC 4553) (Enterococcus sp.; [6]): 16 µg/mL (≈ 10.1 µM)
MIC Enterococcus faecalis (GC 4554) (Enterococcus sp.; [6]): 32 µg/mL (≈ 20.2 µM)
MIC Enterococcus faecalis (GC 6189) (Enterococcus sp.; [6]): 32 µg/mL (≈ 20.2 µM)
MIC Enterococcus faecium (GC 2243) (Enterococcus sp.; [6]): 16 µg/mL (≈ 10.1 µM)
MIC Enterococcus faecium (GC 4556) (Enterococcus sp.; [6]): 32 µg/mL (≈ 20.2 µM)
MIC Enterococcus faecium (GC 4557) (Enterococcus sp.; [6]): 2 µg/mL (≈ 1.26 µM)
Structure (SMILES): CC(c1ccccc1)C1NC(=O)CNC(=O)C(CO)NC(=O)C(C(O)C2CN(Cc3ccc(C(F)(F)F)cc3)C(=N)N2C2OC(CO)C(O)C(O)C2O)NC(=O)C(C(O)C2CNC(=N)N2)NC(=O)C(Cc2ccc(OC3OC(CO)C(OC4OC5COC6(OC5C(O)C4O)C4CC5CC(C4)CC6C5)C(O)C3O)cc2)NC1=O (centres unmarked) [Example 226]
MIC Staphylococcus haemolyticus (GC 4546) (Staphylococcus sp.): 8 µg/mL (≈ 5.05 µM)

MIC Streptococcus agalactiae (GC 4564) (Streptococcus sp.; [1]): 64 µg/mL (≈ 38.5 µM)
MIC Streptococcus pneumoniae (ATCC 6301) (Streptococcus sp.; [2]): 32 µg/mL (≈ 19.3 µM)
MIC Streptococcus pneumoniae (GC 1894) (Streptococcus sp.; [3]): 32 µg/mL (≈ 19.3 µM)
MIC Streptococcus pneumoniae (GC 4565) (Streptococcus sp.; [4]): 64 µg/mL (≈ 38.5 µM)
MIC Streptococcus pyogenes (GC 4563) (Streptococcus sp.; [5]): 32 µg/mL (≈ 19.3 µM)
MIC Streptococcus agalactiae (GC 4564) (Streptococcus sp.; [6]): 64 µg/mL (≈ 38.5 µM)
MIC Streptococcus pneumoniae (ATCC 6301) (Streptococcus sp.; [6]): 32 µg/mL (≈ 19.3 µM)
MIC Streptococcus pneumoniae (GC 1894) (Streptococcus sp.; [6]): 32 µg/mL (≈ 19.3 µM)
MIC Streptococcus pneumoniae (GC 4565) (Streptococcus sp.; [6]): 64 µg/mL (≈ 38.5 µM)
MIC Streptococcus pyogenes (GC 4563) (Streptococcus sp.; [6]): 32 µg/mL (≈ 19.3 µM)
MIC Escherichia coli (GC 4560) (Escherichia coli): 8 µg/mL (≈ 4.81 µM)
MIC Coagulase Negative Staphylococcus (GC 4547) (Staphylococcus sp.): 32 µg/mL (≈ 19.3 µM)
MIC Coagulase Negative Staphylococcus (GC 4548) (Staphylococcus sp.): 4 µg/mL (≈ 2.41 µM)
MIC Coagulase Negative Staphylococcus (GC 4549) (Staphylococcus sp.): 32 µg/mL (≈ 19.3 µM)
MIC Coagulase Negative Staphylococcus (GC 4551) (Staphylococcus sp.): 8 µg/mL (≈ 4.81 µM)
MIC Enterococcus avium (GC 4558) (Enterococcus sp.; Enterococcus avium (GC 4558)): 8 µg/mL (≈ 4.81 µM)
MIC Enterococcus faecalis (ATCC 29212) (Enterococcus sp.; [7]): 64 µg/mL (≈ 38.5 µM)
MIC Enterococcus faecalis (GC 2242) (Enterococcus sp.; [8]): 64 µg/mL (≈ 38.5 µM)
MIC Enterococcus faecalis (GC 2691) (Enterococcus sp.; [9]): 64 µg/mL (≈ 38.5 µM)
MIC Enterococcus faecalis (GC 4552) (Enterococcus sp.; [10]): 64 µg/mL (≈ 38.5 µM)
MIC Enterococcus faecalis (GC 4553) (Enterococcus sp.; [11]): 8 µg/mL (≈ 4.81 µM)
MIC Enterococcus faecalis (GC 6189) (Enterococcus sp.; [12]): 64 µg/mL (≈ 38.5 µM)
MIC Enterococcus faecium (GC 2243) (Enterococcus sp.; Enterococcus faecium (GC 2243)): 32 µg/mL (≈ 19.3 µM)
MIC Enterococcus faecium (GC 4556) (Enterococcus sp.; Enterococcus faecium (GC 4556)): 64 µg/mL (≈ 38.5 µM)
MIC Enterococcus faecium (GC 4557) (Enterococcus sp.; Enterococcus faecium (GC 4557)): 8 µg/mL (≈ 4.81 µM)
MIC Enterococcus avium (GC 4558) (Enterococcus sp.; [6]): 8 µg/mL (≈ 4.81 µM)
MIC Enterococcus faecalis (ATCC 29212) (Enterococcus sp.; [6]): 64 µg/mL (≈ 38.5 µM)
MIC Enterococcus faecalis (GC 2242) (Enterococcus sp.; [6]): 64 µg/mL (≈ 38.5 µM)
MIC Enterococcus faecalis (GC 2691) (Enterococcus sp.; [6]): 64 µg/mL (≈ 38.5 µM)
MIC Enterococcus faecalis (GC 4552) (Enterococcus sp.; [6]): 64 µg/mL (≈ 38.5 µM)
MIC Enterococcus faecalis (GC 4553) (Enterococcus sp.; [6]): 8 µg/mL (≈ 4.81 µM)
MIC Enterococcus faecalis (GC 6189) (Enterococcus sp.; [6]): 64 µg/mL (≈ 38.5 µM)
MIC Enterococcus faecium (GC 2243) (Enterococcus sp.; [6]): 32 µg/mL (≈ 19.3 µM)
MIC Enterococcus faecium (GC 4556) (Enterococcus sp.; [6]): 64 µg/mL (≈ 38.5 µM)
MIC Enterococcus faecium (GC 4557) (Enterococcus sp.; [6]): 8 µg/mL (≈ 4.81 µM)
Structure (SMILES): CC(c1ccccc1)C1NC(=O)CNC(=O)C(CO)NC(=O)C(C(O)C2CN(c3nc4ccccc4o3)C(=N)N2C2OC(CO)C(O)C(O)C2O)NC(=O)C(C(O)C2CNC(=Nc3nc4ccccc4o3)N2)NC(=O)C(Cc2ccc(OC3OC(CO)C(OC4OC5COC6(OC5C(O)C4O)C4CC5CC(C4)CC6C5)C(O)C3O)cc2)NC1=O (stereo not drawn) [Example 227, Di-N-(2-(1,3-benzoxazolyl)-cyclo[glycyl-β-methylphenylalanyl-O-[4-O-[4,6-O-(2-adamantylidene)hexopyranosyl]hexopyranosyl]tyrosyl-3-[2-iminoimidazolidin-4-yl]seryl-3-β-hexopyranosyl-2-iminoimidazolidin-4-yl]serylseryl]]
MIC Staphylococcus haemolyticus (GC 4546) (Staphylococcus sp.): 64 µg/mL (≈ 38.5 µM)

— US8247211B2, “Glycopeptide antibiotics” (American Cyanamid Company, priority 2001, dated 2012)
